Experimental data: patent publication US11136320B2, “Fused ring derivative used as FGFR4 inhibitor” (JACOBIO PHARMACEUTICALS CO., LTD., priority 2019, dated 2021)
Like-named read-outs stand apart in the source and are kept apart here.

Tests used:
[1] = system: Hepatoma cell Hep3B (high expression of FGFR4 and FGF19); assay: Hepatoma cell proliferation inhibition experiment (MTS method); type: cell-based
[2] = PK/PD of NOD-SCID mouse (drug concentration in blood and in tumors); type: in vivo; conditions: for AUC(0-inf) / Cmax / Tmax / half-life / AUC(0-t) / concentration at 4 h / concentration at 6 h: NOD-SCID, mouse, po, 50 mg/kg, p.o. (50 mg/kg); for AUC(0-inf) / Cmax / Tmax / half-life / AUC(0-t): plasma; for AUC(0-t): read-out: AUC0-6 h; for concentration at 4 h / concentration at 6 h: tumor
Protocol: This experiment conducted when the pharmacological experiment in vivo was performed by gavage administration, wherein, the blood samples and tumor samples were taken at different time points to detect drug concentration in blood and drug concentrations in tumors.
(1) Mode of administration: gavage administration;
(2) Dosage: 50 mg/kg in the gavage administration;
Three mice were sampled at each sampling point;
(4) Blood sample collection: 200 μL of orbital blood was collected at sampling time point for each blood sample. After anticoagulation with heparin, the blood was centrifuged at 5500 rpm for 10 mins. 60 μL of the supernatant was taken and put it into the refrigerator at −80° C. for waiting for testing.
Tumour sample collection: 200-300 mg of each tumor tissue was taken. The tumor weight was marked, quickly freezed in liquid nitrogen and placed into a refrigerator at −80° C. for waiting for testing.
Tumour sample processing: pure water was added into the tumor sample according to a ratio of […] between the weight of the tumor sample and the volume of pure water and then it was homogenized. The homogenate was stored at −90° C. to −60° C. until the sample was analyzed. After 5 μL of acetonitrile/water (v/v=1:1) was added into 50 μL of tumor sample homogenate, 200 μL of acetonitrile (containing Dexamethasone 100 ng/ml as internal standard, or containing Verapamil 2 ng/ml as internal standard) was added. After protein precipitation, the resulting mixture was vortexed for 2 mins at 4° C. with 4600 g, and then centrifuged for 15 mins to obtain the supernatant. 100 μL of the supernatant was taken and added into 200 μL of deionized water. 5500 LC/MS/MS analyser was used for sample injection and analysis, after vortexing for homogeneity. The conditions for chromatographic separation and mass spectrometric analysis were as follows: […]

[3] = system: Hep3B; assay: Pharmacodynamic in vivo, Hep3B model tumor growth inhibition; parameters: species or system NOD-SCID mice
Description: The Hep3B cell line was purchased from ATCC; MEM cell culture medium, fetal bovine serum, and trypsin were purchased from Gibco; cell culture flasks were purchased from Greiner; and disposable Cell Counting Plate and taittinger Blue Solution Purchased from Bio-Rad. The disposable sterile syringe was purchased from Changzhou Jinlong Medical Plastic Instrument Co., Ltd, eye surgical scissors and eye surgical forceps were purchased from Shanghai Medical Instrument (Group) Co., Ltd. Surgical Instrument Factory, and 6-8 week old female NOD-SCID mice were purchased from Vitalivar.
a. One strain of Hep3B cells was taken out from the cell bank and MEM medium (MEM+10% FBS+1% PS) was used to recover the cells. The resuscitated cells were placed in a cell culture flask (the wall the flask was marked with the cell type, date, cultivator's name), and the cell culture flask was placed in a CO2 incubator (the temperature of the incubator was 37° C. and the CO2 concentration of the incubator was 5%);
b. When the cells covered about 90% of the bottom of the culture flask, passage was conducted. the cells were continued to cultivate in a CO2 incubator after passage. The above process was repeated until the number of the cell satisfied the requirements of pharmacodynamic in vivo;
c. The cultured cells were collected and counted using a BIO-Rad TC20 cell counter. According to the counting results, the cultured cells were resuspended with PBS and matrix gel (1:1) to obtain a cell suspension (density 5×10^7/ml), and the cell suspension was placed in an ice box for later use.
a. The cells were mixed well before seeding, and 0.5 ml of cell suspension was taken with a 1 ml syringe and bubbles in the cell suspension were removed. The syringe with the cell suspension was place on an ice pack for later use.
b. The NOD-SCID mice were set with the left hand, and the skin on the right back of the mice was disinfected with 75% alcohol. The inoculation was beginning after 30 seconds.
c. During inoculation, 1 mL syringe was on the right hand, and the cell suspension of Hep3B was inoculated subcutaneously into the right shoulder of the right back of the mouse at 0.1 mL/mouse. At inoculation interval, the syringe was placed on an ice pack and the mice were inoculated sequentially.
d. According to the tumor growth, the tumor was measured and the tumor size was calculated on the 12-15 days after inoculation.
Tumor volume calculation: tumor volume (mm^3)=length (mm)×width (mm)×width (mm)/2
e. When the tumors grew to an average volume of 100-150 mm^3, the mice were randomly divided into two groups according to tumor size and the weight of the mouse. […]
f. […] Tumors were measured and the mice were weighed twice a week after administration. […]

[4] = molecular target: T1, FGFR4 kinase (Homo sapiens (Human), UniProt P22455)
[5] = molecular target: T1, FGFR4 kinase; assay: biochemical

T1 sequence (P22455 22-802): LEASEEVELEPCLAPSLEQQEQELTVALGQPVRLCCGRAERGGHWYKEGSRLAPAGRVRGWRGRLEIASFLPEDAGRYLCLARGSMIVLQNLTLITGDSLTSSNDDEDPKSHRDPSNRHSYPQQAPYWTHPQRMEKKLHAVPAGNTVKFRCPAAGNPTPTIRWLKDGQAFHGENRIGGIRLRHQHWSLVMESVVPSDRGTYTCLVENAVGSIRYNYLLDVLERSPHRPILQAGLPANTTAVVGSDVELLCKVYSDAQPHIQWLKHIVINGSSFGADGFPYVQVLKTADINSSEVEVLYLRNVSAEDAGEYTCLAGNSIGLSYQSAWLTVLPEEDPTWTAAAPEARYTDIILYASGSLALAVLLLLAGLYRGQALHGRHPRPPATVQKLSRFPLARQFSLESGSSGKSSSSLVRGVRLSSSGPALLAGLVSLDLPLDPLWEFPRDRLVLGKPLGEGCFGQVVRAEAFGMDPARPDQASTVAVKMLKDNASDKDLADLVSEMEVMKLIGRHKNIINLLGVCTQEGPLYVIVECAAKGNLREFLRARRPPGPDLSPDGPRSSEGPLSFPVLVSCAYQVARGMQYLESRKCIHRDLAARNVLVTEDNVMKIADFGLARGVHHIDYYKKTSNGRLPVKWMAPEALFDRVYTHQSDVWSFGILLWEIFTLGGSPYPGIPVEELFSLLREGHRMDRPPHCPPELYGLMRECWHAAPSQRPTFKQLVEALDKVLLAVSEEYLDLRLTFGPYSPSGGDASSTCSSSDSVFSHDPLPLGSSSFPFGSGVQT

For `CSC[C@@H](C)Nc1cc(NC(=O)N2CCCc3cc(CN4CCN(C)CC4=O)c(C=O)nc32)ncc1C#N` [Compound 4, (R)—N-(5-Cyano-4-((1-(methylthio)propan-2-yl)amino)pyridin-2-yl)-7-formyl-6-((4-methyl-2-oxopiperazin-1-yl)methyl)-3,4-dihydro-1,8-naphthyridine-1 (2H)-carboxamide], the “inhibitory effect on Hepatoma cell Hep3B compared with the reference compound” value [1] was “better inhibitory effect”, the IC50 ([1]; Homo sapiens, Hep3B, 120 h incubation, read-out: Hep3B(IC50 μM)) was 0.014 µM and the “content in tumor tissue relative to the reference compound” value ([2]; Hep3B model, 4 h or 6 h) was “more than 15 times”. It also gave an AUC(0-inf) ([2]; Hep3B model) of 3360 ng·h/mL, a Cmax ([2]; Hep3B model) of 1020 ng/mL and a Tmax ([2]; Hep3B model) of 2 h. It also gave a half-life ([2]; Hep3B model) of 1.48 h, an AUC(0-t) ([2]; Hep3B model) of 3020 ng·h/mL and an AUC(0-inf) ([2]; SNU878 model) of 4260 ng·h/mL. The Cmax ([2]; SNU878 model) was 1230 ng/mL, the Tmax ([2]; SNU878 model) was 1 h and the half-life ([2]; SNU878 model) was 2.3 h. It also gave an AUC(0-t) ([2]; SNU878 model) of 3530 ng·h/mL, a concentration at 4 h ([2]; Hep3B model) of 1210 ng/g and a concentration at 6 h ([2]; Hep3B model, 6 h) of 673 ng/g. For the same compound, the concentration at 4 h ([2]; SNU878 model) was 2340 ng/g, the concentration at 6 h ([2]; SNU878 model, 6 h) was 1950 ng/g and the “content in tumor tissue relative to the reference compound” value ([2]; SNU878 model, 6 h) was “about twice”. The antitumor effect [3] was “excellent antitumor effect”, the “effect of 15 mg/kg BID compared with 60 mg/kg QD of the reference compound” value [3] was “equivalent” and the TGI % ([3]; 15 mg/kg BID, gavage) was 96.7%. The “inhibitory effect on FGFR4 compared with the reference compound” value [4] was “better inhibitory effect on FGFR4 than the reference compound” and the IC50 [5] was 1.4 nM.
